According to US12581252B2, “Substituted pyrrolo[3,4-b]pyridines as PI3K-α inhibitors” (Relay Therapeutics, Inc., priority 2020, dated 2026):

Experiments:
[1] = biological target: H1047R PIK3CA enzyme (Homo sapiens, UniProt P42336, H1047R); experiment: ADP-Glo Biochemical PIK3CA Kinase Assay
[2] = cells; settings: Homo sapiens, MCF-10A, read-out: MCF10A IC50

H1047R PIK3CA enzyme, sequence (P42336 whole entry H1047R): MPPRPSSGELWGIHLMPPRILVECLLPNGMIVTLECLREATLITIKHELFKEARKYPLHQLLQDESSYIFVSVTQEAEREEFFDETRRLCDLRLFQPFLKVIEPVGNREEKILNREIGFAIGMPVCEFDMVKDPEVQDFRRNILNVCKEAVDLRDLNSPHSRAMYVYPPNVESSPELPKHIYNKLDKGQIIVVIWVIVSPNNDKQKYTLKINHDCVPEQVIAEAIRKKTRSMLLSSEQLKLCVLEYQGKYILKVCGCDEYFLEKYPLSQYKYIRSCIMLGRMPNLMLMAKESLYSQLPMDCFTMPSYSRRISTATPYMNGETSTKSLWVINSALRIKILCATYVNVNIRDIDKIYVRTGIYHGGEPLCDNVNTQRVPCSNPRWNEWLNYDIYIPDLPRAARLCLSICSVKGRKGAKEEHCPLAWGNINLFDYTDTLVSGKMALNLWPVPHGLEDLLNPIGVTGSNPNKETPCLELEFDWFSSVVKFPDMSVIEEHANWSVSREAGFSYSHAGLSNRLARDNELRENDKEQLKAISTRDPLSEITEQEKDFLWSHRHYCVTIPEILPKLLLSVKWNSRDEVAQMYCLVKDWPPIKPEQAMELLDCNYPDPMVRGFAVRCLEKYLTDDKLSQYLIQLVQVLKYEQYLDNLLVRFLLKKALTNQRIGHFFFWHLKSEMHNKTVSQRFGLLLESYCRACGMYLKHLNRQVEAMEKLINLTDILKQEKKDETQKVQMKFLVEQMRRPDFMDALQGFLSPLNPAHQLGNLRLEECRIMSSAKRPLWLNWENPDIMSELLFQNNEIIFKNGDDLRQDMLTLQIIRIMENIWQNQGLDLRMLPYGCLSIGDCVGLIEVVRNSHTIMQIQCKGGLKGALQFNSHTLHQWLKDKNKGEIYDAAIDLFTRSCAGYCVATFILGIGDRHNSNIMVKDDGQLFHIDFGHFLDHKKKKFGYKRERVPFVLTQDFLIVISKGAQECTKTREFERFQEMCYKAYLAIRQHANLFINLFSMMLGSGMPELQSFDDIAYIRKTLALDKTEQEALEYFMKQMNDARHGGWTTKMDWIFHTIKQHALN
H1047R PIK3CA enzyme, sequence (P27986 whole entry partner): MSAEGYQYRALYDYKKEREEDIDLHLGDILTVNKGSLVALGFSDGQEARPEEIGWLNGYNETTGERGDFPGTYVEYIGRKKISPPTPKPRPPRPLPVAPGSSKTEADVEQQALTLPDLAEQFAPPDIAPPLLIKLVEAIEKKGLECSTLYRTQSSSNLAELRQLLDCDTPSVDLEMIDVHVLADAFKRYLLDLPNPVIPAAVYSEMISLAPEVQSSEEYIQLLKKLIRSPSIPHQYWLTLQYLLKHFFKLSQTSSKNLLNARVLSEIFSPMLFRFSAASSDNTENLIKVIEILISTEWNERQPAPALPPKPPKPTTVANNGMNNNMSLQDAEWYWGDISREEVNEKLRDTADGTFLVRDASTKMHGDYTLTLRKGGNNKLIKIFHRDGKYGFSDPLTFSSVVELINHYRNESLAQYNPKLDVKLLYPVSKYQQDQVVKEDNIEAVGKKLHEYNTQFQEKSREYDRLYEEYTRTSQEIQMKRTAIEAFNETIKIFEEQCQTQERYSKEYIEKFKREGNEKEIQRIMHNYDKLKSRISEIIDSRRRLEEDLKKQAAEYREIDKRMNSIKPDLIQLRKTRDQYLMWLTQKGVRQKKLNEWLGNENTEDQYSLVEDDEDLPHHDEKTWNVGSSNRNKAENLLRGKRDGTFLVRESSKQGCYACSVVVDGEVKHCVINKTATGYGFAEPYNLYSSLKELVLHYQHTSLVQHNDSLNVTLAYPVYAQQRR

Structure (SMILES)	IC50 [1] [nM]	IC50 [2] [nM]
O=C1CCc2c(cccc2-c2cc(NC(=O)c3cc(F)cc(C(F)(F)F)c3)c3c(c2)C(=O)NC3c2cc(F)ccc2Cl)N1 (centres unmarked) [Compound I-1028]	≤ 100	< 1000
Cc1noc2ncc(-c3cc(NC(=O)c4cc(F)cc(C(F)(F)F)c4)c4c(c3)C(=O)NC4c3cc(F)ccc3Cl)cc12 (centres unmarked) [Compound I-1039]	≤ 100	< 1000
O=C1N[C@@H](c2cc(F)ccc2Cl)c2c(NC(=O)[C@H]3CCC[C@@H](C(F)(F)F)C3)cc(-c3ccc4ncnn4c3)cc21 [Compound I-2029]	≤ 100	< 1000
Cc1ccccc1[C@@H]1NC(=O)c2cc(C(=O)NCC(F)F)cc(NC(=O)c3nsc4ccccc34)c21 [Compound I-166]	≤ 100	< 1000
CNc1cc(NC(=O)N2C[C@](O)(C(F)(F)F)c3cc(F)ccc32)c2c(n1)C(=O)N[C@@H]2c1cc(F)ccc1Cl (single isomer, unassigned) [Compound I-2644]	≤ 100	< 1000
C#Cc1ccccc1-c1cc(NC(=O)c2cc(F)cc(C(F)(F)F)c2)c2c(c1)C(=O)NC2c1cc(F)ccc1Cl (centres unmarked) [Compound I-1163]	≤ 100	< 1000
O=C(Nc1cc(-c2ccc(N3CCOCC3)nc2)cc2c1C(c1cc(F)ccc1Cl)NC2=O)c1cc(F)cc(C(F)(F)F)c1 (centres unmarked) [Compound I-929]	≤ 100	< 1000
Cn1cc2cc(-c3cc(NC(=O)c4cc(F)cc(C(F)(F)F)c4)c4c(c3)C(=O)NC4c3cc(F)ccc3Cl)ccc2n1 (centres unmarked) [Compound I-1029]	≤ 100	< 1000
O=C1N[C@@H](c2cc(F)ccc2Cl)c2c(NC(=O)N3C[C@@H](O)c4ccc(F)cc43)cccc21 (stereo in doubt) [Compound I-2171]	≤ 100	< 1000
O=C(Nc1cc(-c2ccc3ncncc3c2)cc2c1C(c1cc(F)ccc1Cl)NC2=O)c1cc(F)cc(C(F)(F)F)c1 (centres unmarked) [Compound I-1093]	≤ 100	< 1000
O=C(Nc1cc(-n2cncn2)cc2c1C(c1cc(F)ccc1Cl)NC2=O)c1cc(F)cc(C(F)(F)F)c1 (centres unmarked) [Compound I-1086]	≤ 100	< 1000
O=C(Nc1cc(-c2ccn[nH]2)cc2c1[C@H](c1cc(F)ccc1Cl)NC2=O)c1cc(F)cc(C(F)(F)F)c1 [Compound I-865]	≤ 100	< 1000
Cc1ccccc1C1NC(=O)c2cc(Br)cc(NC(=O)c3csc4ccccc34)c21 (centres unmarked) [Compound I-29, N-[6-bromo-3-(2-methylphenyl)-1-oxo-2,3-dihydro-1H-isoindol-4-yl]-1-benzothiophene-3-carboxamide]	≤ 100	< 1000
O=C(Nc1cc(-c2cnc3ccccc3n2)cc2c1C(c1cc(F)ccc1Cl)NC2=O)c1cc(F)cc(C(F)(F)F)c1 (centres unmarked) [Compound I-948]	≤ 100	< 1000
O=C1N[C@@H](c2cc(F)ccc2Cl)c2c(NC(=O)N3C[C@@H](C(F)F)c4ccccc43)cccc21 (single isomer, unassigned) [Compound I-2334]	≤ 100	1000 to 5000
COc1ccc(CNCc2cc(NC(=O)c3nsc4ccccc34)c3c(c2)C(=O)NC3c2cc(F)ccc2Cl)cc1 (centres unmarked) [Compound I-155]	≤ 100	1000 to 5000
O=C(Nc1cc(-c2ccc(=O)n(C3CC3)c2)nc2c1[C@H](c1cc(F)ccc1Cl)NC2=O)c1cc(F)cc(C(F)(F)F)c1 [Compound I-747]	≤ 100	< 1000
Cc1ccccc1C1NC(=O)c2cc(N)cc(NC(=O)c3csc4ccccc34)c21 (centres unmarked) [Compound I-34]	≤ 100	1000 to 5000
O=C1COCc2cc(-c3cc(NC(=O)c4cc(F)cc(C(F)(F)F)c4)c4c(c3)C(=O)NC4c3cc(F)ccc3Cl)ccc2N1 (centres unmarked) [Compound I-1043]	≤ 100	< 1000
COCCc1cc(NC(=O)c2cc(F)cc(C(F)(F)F)c2)c2c(c1)C(=O)NC2c1cc(F)ccc1Cl (centres unmarked) [Compound I-1020]	≤ 100	< 1000
O=C1N[C@H](c2ccccc2Cl)c2c(NC(=O)c3csc4ccccc34)ccnc21 [Compound I-33]	100 to 500	1000 to 5000
COc1ncc(-c2cc(NC(=O)c3cc(F)cc(C(F)(F)F)c3)c3c(c2)C(=O)N[C@H]3c2cc(F)ccc2Cl)cn1 [Compound I-882]	≤ 100	< 1000
N#Cc1c(N)cc(NC(=O)c2cc(F)cc(C(F)(F)F)c2)c2c1C(=O)NC2c1cc(F)ccc1Cl (centres unmarked) [Compound I-2223]	≤ 100	< 1000
O=C(Nc1cc(NC2=NC[C@@H](C(F)(F)F)O2)cc2c1[C@H](c1cc(F)ccc1Cl)NC2=O)c1cc(F)cc(C(F)(F)F)c1 (single isomer, unassigned) [Compound I-2324]	≤ 100	< 1000
[2H][C@@]1(c2cc(F)ccc2Cl)NC(=O)c2cccc(NC(=O)N3C[C@@](O)(C(F)(F)F)c4cc(F)ccc43)c21 (single isomer, unassigned) [Compound I-2682]	≤ 100	< 1000

Structure (SMILES)	IC50 [1] [nM]	IC50 [2] [nM]
COc1c(F)cccc1-c1cc(NC(=O)c2cc(F)cc(C(F)(F)F)c2)c2c(c1)C(=O)NC2c1cc(F)ccc1Cl (centres unmarked) [Compound I-1156]	≤ 100	< 1000
O=C(Nc1cc(-c2cccc3ncccc23)cc2c1C(c1cc(F)ccc1Cl)NC2=O)c1cc(F)cc(C(F)(F)F)c1 (centres unmarked) [Compound I-931]	≤ 100	< 1000
C[C@]1(C(=O)Nc2cc(Br)cc3c2[C@@H](c2cc(F)ccc2Cl)NC3=O)CCC[C@@H](C(F)(F)F)C1 (single isomer, unassigned) [Compound I-2261]	≤ 100	< 1000
Cn1cc(Nc2cc(NC(=O)c3cc(F)cc(C(F)(F)F)c3)c3c(c2)C(=O)NC3c2cc(F)ccc2Cl)nn1 (centres unmarked) [Compound I-965]	≤ 100	< 1000
CNC(=O)c1cc(NC(=O)c2csc3ccccc23)c2c(c1)C(=O)NC2c1ccccc1C (racemic) [Compound I-6, 7-(Benzo[b]thiophene-3-carboxamido)-N-methyl-3-oxo-1-(o-tolyl)isoindoline-5-carboxamide]	≤ 100	< 1000
O=C(Nc1cc(-c2n[nH]c3ncccc23)cc2c1C(c1cc(F)ccc1Cl)NC2=O)c1cc(F)cc(C(F)(F)F)c1 (centres unmarked) [Compound I-939]	≤ 100	< 1000
Cc1coc(Nc2cc(NC(=O)c3cc(F)cc(C(F)(F)F)c3)c3c(c2)C(=O)NC3c2cc(F)ccc2Cl)n1 (centres unmarked) [Compound I-964]	≤ 100	< 1000
O=C(Nc1cc(-c2ccnc3ccccc23)cc2c1C(c1cc(F)ccc1Cl)NC2=O)c1cc(F)cc(C(F)(F)F)c1 (centres unmarked) [Compound I-934]	≤ 100	< 1000
Cc1ccccc1C1NC(=O)c2cc(CS(C)(=O)=O)cc(NC(=O)c3nsc4ccccc34)c21 (centres unmarked) [Compound I-202, N-(6-((Methylsulfonyl)methyl)-1-oxo-3-(o-tolyl)isoindolin-4-yl)benzo[d]isothiazole-3-carboxamide]	≤ 100	< 1000
O=C(Nc1cc(-c2ncco2)cc2c1C(c1cc(F)ccc1Cl)NC2=O)c1cc(F)cc(C(F)(F)F)c1 (centres unmarked) [Compound I-915]	≤ 100	< 1000
O=C1NC(c2cc(F)ccc2Cl)c2c(NC(=O)N3CC(O)(C(F)F)c4cc(F)ccc43)cccc21 (mixture of isomers) [Compound I-2488]	≤ 100	1000 to 5000
O=C1N[C@@H](c2cc(F)ccc2Cl)c2c(NC(=O)N3C[C@](O)(C(F)F)c4cc(F)ccc43)cc(F)cc21 (single isomer, unassigned) [Compound I-2635]	≤ 100	< 1000
N#CCc1cc(NC(=O)N2CC(O)(C(F)(F)F)c3ccccc32)c2c(c1)C(=O)NC2c1cc(F)ccc1Cl (mixture of isomers) [Compound I-2585]	≤ 100	< 1000
O=C(Nc1cc(-c2cn[nH]c2)cc2c1[C@H](c1cc(F)ccc1Cl)NC2=O)c1cc(F)cc(C(F)(F)F)c1 [Compound I-1078]	≤ 100	< 1000
N#Cc1cc(NC(=O)N2C[C@@](O)(C(F)(F)F)c3cc(F)ccc32)c2c(c1)C(=O)N[C@@H]2c1cc(F)ccc1Cl (single isomer, unassigned) [Compound I-2560]	≤ 100	< 1000
O=C1N[C@H](c2cc(F)ccc2Cl)c2c(NC(=O)N3C[C@H](O)c4cc(F)ccc43)cc(-c3ccc(=O)n(C(F)F)c3)cc21 (single isomer, unassigned) [Compound I-2448]	≤ 100	1000 to 5000
O=C1N[C@@H](c2cc(F)ccc2Cl)c2c(NC(=O)N3C[C@@](O)(C(F)(F)F)c4cc(F)ccc43)cc(Cl)cc21 (single isomer, unassigned) [Compound I-2513]	≤ 100	< 1000
O=C(Nc1cc(-c2cnoc2)cc2c1C(c1cc(F)ccc1Cl)NC2=O)c1cc(F)cc(C(F)(F)F)c1 (centres unmarked) [Compound I-935]	≤ 100	< 1000
O=C1N[C@@H](c2cc(F)ccc2Cl)c2c(Nc3nccc4c(C(F)(F)F)cc(F)cc34)cc(Br)cc21 [Compound I-1109]	≤ 100	< 1000
O=C(Nc1cc(-c2cnn(C3CC3)c2)cc2c1C(c1cc(F)ccc1Cl)NC2=O)c1cc(F)cc(C(F)(F)F)c1 (centres unmarked) [Compound I-942]	≤ 100	< 1000
O=C1N[C@@H](c2cc(F)ccc2Cl)c2c(NC(=O)N3C[C@@](O)(C(F)(F)F)c4ccccc43)cc(Cl)cc21 (single isomer, unassigned) [Compound I-2509]	≤ 100	< 1000
N#Cc1ncc(-c2cc(NC(=O)c3cc(F)cc(C(F)(F)F)c3)c3c(c2)C(=O)N[C@@H]3c2cc(F)ccc2Cl)cn1 [Compound I-980]	≤ 100	< 1000
COc1cccc(-c2cc(NC(=O)c3cc(F)cc(C(F)(F)F)c3)c3c(c2)C(=O)N[C@H]3c2cc(F)ccc2Cl)n1 (stereo in doubt) [Compound I-1006]	≤ 100	< 1000
O=C1N[C@H](c2cc(F)ccc2Cl)c2c(NC(=O)N3C[C@@](O)(C(F)(F)F)c4cc(F)ccc43)cc(N3CCOC3=O)cc21 (single isomer, unassigned) [Compound I-2673]	≤ 100	< 1000
